According to ChEMBL document CHEMBL3137667, “[Drug-induced liver injury; fourteenth updated edition of the bibliographic database of liver injuries and related drugs]” (Gastroenterol Clin Biol, 2004):
Where a SMILES comes first, the peptide text is derived from it. Bridges are numbered along the chain shown (N, C = ends). [ ]: non-standard residue; d: D form.

How the values were obtained:
[1] = Highest frequency of moderate liver toxicity observed during clinical trials, expressed as a percentage. [column '% BIOL' in source]; details: human
[2] = Highest frequency of acute liver toxicity observed during clinical trials, expressed as a percentage. [column '% AIGUE' in source]; details: human
[3] = Comments (NB not yet translated). [column 'COMMENTAIRES' in source]; details: human
[4] = Times to onset, minimal and maximal, observed in the indexed observations. [column 'DELAI' in source]; details: human
[5] = human, serum
[6] = human, serum; remark: listed apart in the source
[7] = human
[8] = human; remark: listed apart in the source
[9] = human; remark: listed apart in the source
[10] = human, serum, 4383 h
[11] = human; remark: listed apart in the source
[12] = human; remark: listed apart in the source
[13] = human; remark: listed apart in the source
[14] = human; remark: listed apart in the source
[15] = human; remark: listed apart in the source
[16] = human; remark: listed apart in the source
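Wherever Hepatotoxicity (association with vascular disease) is given: count of indexed literature references reporting vascular liver injury in humans, e.g. peliosis hepatitis, hepatic veno-occlusive disease or Budd-Chiari syndrome.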
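Wherever Hepatotoxicity (benign tumour) is given: value is a count of indexed literature references citing a benign tumour confirmed by histopathology.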
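Wherever Hepatotoxicity (choleostasis) is given: human cholestatic liver injury, shown by histopathology or by peak ALT or AST elevation over alkaline phosphatase ratio below 2, value counts indexed literature reports.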
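Wherever Hepatotoxicity (chronic liver disease) is given: chronic liver injury confirmed by histopathology or persistently raised serum aminotransferase activity beyond 6 months, value given as the count of indexed literature references.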
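Wherever Hepatotoxicity (cirrhosis) is given: value is a count of indexed literature references reporting cirrhosis confirmed by histopathology.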
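Wherever Hepatotoxicity (cytolytic) is given: human cytolytic liver injury, shown by histopathology or by a ratio above 5 of peak ALT or AST elevation to alkaline phosphatase elevation, value counts indexed references.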
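Wherever Hepatotoxicity (granulomatous hepatitis) is given: value is a count of indexed literature references reporting granulomatous liver disease confirmed by histopathology.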
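Wherever Hepatotoxicity (malignant tumour) is given: malignant tumour confirmed by histopathology, value gives the count of indexed literature references reporting it.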
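Wherever Hepatotoxicity (severe hepatitis) is given: human clinical data: severe hepatitis, meaning potentially life-threatening liver failure or clinically observed cases, the value counts how many indexed literature references report it.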
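Wherever Hepatotoxicity (steatosis) is given: steatosis confirmed by histopathology, value is the count of indexed references.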

Molecule | Hepatotoxicity (moderate) [1] | Hepatotoxicity (acute) [2] | Hepatotoxicity (comment) [3] | Hepatotoxicity (time to onset) [4] | Hepatotoxicity (moderate) [5] | Hepatotoxicity (acute) [6] | Hepatotoxicity (cytolytic) [7] | Hepatotoxicity (choleostasis) [8] | Hepatotoxicity (severe hepatitis) [9] | Hepatotoxicity (chronic liver disease) [10] | Hepatotoxicity (cirrhosis) [11] | Hepatotoxicity (granulomatous hepatitis) [12] | Hepatotoxicity (association with vascular disease) [13] | Hepatotoxicity (steatosis) [14] | Hepatotoxicity (malignant tumour) [15] | Hepatotoxicity (benign tumour) [16] | other results
CCOc1nc2cccc(C(=O)O)c2n1Cc1ccc(-c2ccccc2-c2nnn[nH]2)cc1 | 2.4% | 0% | DUCTOPENIE | 2 weeks - 5.5 months | 3 | 2 | 3 | 0 | 1 | 0 | 0 | 0 | 0 | 1 | 0 | 0 | –
CC(=O)[C@@]1(O)CC[C@H]2[C@@H]3C[C@H](C)C4=CC(=O)CC[C@]4(C)[C@H]3CC[C@@]21C | – | – | LITHIASE | 1 month - 1.7 years | 5 | 3 | – | – | – | 0 | 0 | – | 0 | 0 | 0 | 0 | Hepatotoxicity (moderate) ([1]; Liver): 4.9%; Hepatotoxicity (acute) ([2]; Liver): 3.3%; Hepatotoxicity (cytolytic) ([7]; Liver): 1; Hepatotoxicity (choleostasis) ([8]; Liver): 1; Hepatotoxicity (severe hepatitis) ([9]; Liver): 1; Hepatotoxicity (granulomatous hepatitis) ([12]; Liver): 0
CCO.CN1CCC[C@H]1c1cccnc1 | – | – | CHOLANGITE | 8 months - 10 years | 2 | 3 | – | – | – | 1 | 0 | – | 0 | 0 | 0 | 0 | Hepatotoxicity (moderate) ([1]; Liver): 4%; Hepatotoxicity (acute) ([2]; Liver): 0%; Hepatotoxicity (cytolytic) ([7]; Liver): 1; Hepatotoxicity (choleostasis) ([8]; Liver): 2; Hepatotoxicity (severe hepatitis) ([9]; Liver): 0; Hepatotoxicity (granulomatous hepatitis) ([12]; Liver): 0
Cc1c(O)cccc1C(=O)N[C@@H](CSc1ccccc1)[C@H](O)CN1C[C@H]2CCCC[C@H]2C[C@H]1C(=O)NC(C)(C)C | 27% | 7.4% | REACTIVATION_HVB | 47 days - 17 months | 4 | 3 | 3 | 0 | 0 | 0 | 0 | 0 | 0 | 0 | 0 | 0 | –
C[C@]12C=CC(=O)C=C1CC[C@@H]1[C@@H]2CC[C@@]2(C)[C@H]1CC[C@]2(C)O (stereo in doubt; form 1) [METHANDROSTENOLONE] | 0% | 0% | ANGIOSARCOME | 1 year - 2 years | 0 | 3 | 0 | 0 | 0 | 0 | 0 | 0 | 0 | 0 | 2 | 1 | –
CC(=O)c1ccc2c(c1)N(CCCN(C)C)c1ccccc1S2 [ACEPROMAZINE] | 0% | 0% | CHOLESTASE_PROLONGEE | 3 months | 0 | 1 | 0 | 1 | 0 | 0 | 0 | 0 | 0 | 0 | 0 | 0 | –
CC(=O)c1ccc2c(c1)N(CC(C)N(C)C)c1ccccc1S2 (stereo not given) [ACEPROMETAZINE] | 0% | 0% | CHOLESTASE_PROLONGEE | 3 months | 0 | 1 | 0 | 1 | 0 | 0 | 0 | 0 | 0 | 0 | 0 | 0 | –
NCCCC(O)(P(=O)(O)O)P(=O)(O)O [ALENDRONIC ACID] | – | – | AC_ANTI-ML | 2 months - 6 months | 2 | 3 | – | – | – | 0 | 0 | – | 0 | 0 | 0 | 0 | Hepatotoxicity (moderate) ([1]; Liver): 1.6%; Hepatotoxicity (acute) ([2]; Liver): 0%; Hepatotoxicity (cytolytic) ([7]; Liver): 3; Hepatotoxicity (choleostasis) ([8]; Liver): 0; Hepatotoxicity (severe hepatitis) ([9]; Liver): 1; Hepatotoxicity (granulomatous hepatitis) ([12]; Liver): 0
O=c1cc(Cc2ccccc2)[nH]c(=S)[nH]1 [BENZYLTHIOURACIL] | 0% | 0% | RC/CARBIMAZOLE | 1 month - 2 months | 1 | 1 | 0 | 1 | 0 | 0 | 0 | 0 | 0 | 0 | 0 | 0 | –
CC(C)(Oc1ccc(CCNC(=O)c2ccc(Cl)cc2)cc1)C(=O)O [BEZAFIBRATE] | 10% | 0% | I/PERHEXILINE | 3 weeks - 3 months | 5 | 2 | 1 | 0 | 1 | 0 | 0 | 0 | 0 | 0 | 0 | 0 | –
COc1cc([C@@H]2c3cc4c(cc3[C@@H](O[C@@H]3O[C@@H]5CO[C@@H](c6cccs6)O[C@H]5[C@H](O)[C@H]3O)[C@H]3COC(=O)[C@H]23)OCO4)cc(OC)c1O [TENIPOSIDE] | 23.8% | 0% | HNR | – | 4 | 0 | 0 | 0 | 0 | 0 | 0 | 0 | 1 | 0 | 0 | 0 | –
CC(C)[C@@H]1NC(=O)[C@H](CCCCN)NC(=O)[C@@H](Cc2c[nH]c3ccccc23)NC(=O)[C@H](Cc2ccc(O)cc2)NC(=O)[C@@H](NC(=O)[C@H](N)Cc2ccccc2)CSSC[C@@H](C(=O)N[C@@H](Cc2c[nH]c3ccccc23)C(N)=O)NC1=O [VAPREOTIDE] (H-[dF]CY[dW]KVCW-NH2; disulfide 2-7) | 4.8% | 0% | LITHIASE | – | 1 | 0 | 0 | 0 | 0 | 0 | 0 | 0 | 0 | 0 | 0 | 0 | –
ANTIMONY (III) ION | 0% | 0% | HEPATONEPHRITE | – | 0 | 1 | 1 | 0 | 0 | 0 | 0 | 0 | 0 | 0 | 0 | 0 | –
